Source: US11130780B2, “Inhibitors of growth factor activation enzymes” (Washington University, priority 2015, dated 2021)

Experiments:
Assay type in all cases: biochemical
[1] = biological target: T1, HGFA (Homo sapiens, UniProt Q04756); assay: Chromogenic kinetic enzyme inhibitor assay of HGFA; details: Table 4.1; chromogenic substrate Pefachrome FVIIa
T1 construct: His6 tag (N); seven amino acid spacer and seven amino acid TEV cleavage site (N); Honey Bee melittin signal peptide (N); made in house; host or cells: High 5 insect cells (baculovirus; virus raised in Sf9)
T1 sequence (Q04756 373-655): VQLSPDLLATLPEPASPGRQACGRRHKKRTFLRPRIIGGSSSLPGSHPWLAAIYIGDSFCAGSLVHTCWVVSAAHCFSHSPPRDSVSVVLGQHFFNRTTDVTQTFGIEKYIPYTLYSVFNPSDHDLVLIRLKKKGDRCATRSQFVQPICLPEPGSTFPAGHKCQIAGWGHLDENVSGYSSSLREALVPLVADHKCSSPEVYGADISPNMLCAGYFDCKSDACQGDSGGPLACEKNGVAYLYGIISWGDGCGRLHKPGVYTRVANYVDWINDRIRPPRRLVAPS
Text: This PCR product was cloned into the SfoI-HindIII sites of a modified pFastBac HT baculovirus expression vector (Addgene, Cambridge, Mass.). This vector contains a six amino His tag followed by a seven amino spacer and a seven amino acid TEV cleavage site placed immediately downstream of the Honey Bee melittin signal peptide. Using a modified Bac to Bac Expression System (Life Technologies, Carlsbad, Calif.), recombinant HGFA bacmids were obtained by transforming DH10Bac Escherichia coli cells. To obtain HGFA containing baculovirus, purified bacmids were transfected into Sf9 insect cells. After 5 days in culture at 27° C., media was harvested from transfected Sf9 cells. This media was used to prepare baculovirus infected insect cells (BIICs). These BIIICs were used to infect High 5 insect cells. Four days post infection, media was harvested and recombinant protein prepared as follows. Media was chilled to 4° C. and spun at 4000×g for 20 minutes (all subsequent steps were performed at 4° C. unless noted). […] Concentrated media was then buffer exchanged in two steps, five volumes of 50 mM Na-phosphate, 500 mM NaCl, pH 6.2, followed by five volumes of 50 mM Na-phosphate, 500 mM NaCl, pH 7.5. […] After mixing this slurry for 12 hours, nickel agarose beads were allowed to settle by gravity and then loaded into a column. Beads were washed with buffer (25 mM Na-phosphate, 500 mM NaCl, 25 mM imidazole, pH 8) and the bound protein eluted using (25 mM Na-phosphate, 500 mM NaCl, 250 mM imidazole, pH 8). Using a Amicon Ultra-4 Centrifugal filters (#UFC801008, Merck Millipore, Ltd., Tullagreen, Ireland), peak protein fractions were concentrated and run over a Superdex-200 10/300 GL column (GE Healthcare Life Sciences, Piscataway, N.J.) in 10 mM Tris, 200 mM NaCl, 0.2 mM EDTA, pH 8. HGFA containing fractions were pooled, concentrated, made 50% glycerol, and stored at minus 20° C. Protein was quantitated using a modified Lowry protein assay (#500-0006, Bio-Rad Laboratories, Hercules, Calif.).
Using Gen 5 2.00 software program (Biotek, Winnoski, Vt.), a four parameter curve fit was used to determine the inhibitor IC50s from a plot of the mean reaction velocity versus the inhibitor concentration. The IC50 values represent the average of three separate experimental determinations.

[2] = biological target: T2, matriptase (Homo sapiens, UniProt Q9Y5Y6); assay: Fluorescent kinetic enzyme inhibitor assay of matriptase; details: for IC50: Table 4.1; for Ki: Table 4.2, Boc-QAR-AMC substrate
T2 construct: Charles Craik, UCSF (obtained from another laboratory)
T2 sequence (Q9Y5Y6 615-855 limits assumed): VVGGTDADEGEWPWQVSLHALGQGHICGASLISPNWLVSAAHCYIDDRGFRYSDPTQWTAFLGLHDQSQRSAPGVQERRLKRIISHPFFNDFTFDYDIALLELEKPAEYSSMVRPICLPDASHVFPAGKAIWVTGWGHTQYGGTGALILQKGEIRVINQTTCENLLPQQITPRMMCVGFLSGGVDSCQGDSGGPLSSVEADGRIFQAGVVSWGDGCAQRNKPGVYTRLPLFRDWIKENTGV
Procedure, shortened: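 Fluorescence (ex 380/em 460 nm) followed kinetically at room temperature; IC50 from four-parameter fit of mean velocity versus concentration, averaged over three experiments.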

[3] = biological target: thrombin (Homo sapiens, UniProt P00734); assay: Chromogenic kinetic enzyme assay of thrombin; details: Table 4.1; read-out: Thrombin Ki
Procedure, shortened: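 Recombinant human thrombin (0.15 nM) or Factor Xa (0.35 nM) was mixed with 11-point inhibitor dilutions (0–20 μM, 2% DMSO) in TNC buffer, pH 8. Kinetic absorbance at 405 nm gave velocities. IC50 came from a four-parameter fit and Ki from Cheng–Prusoff.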

[4] = biological target: Factor Xa (Homo sapiens, UniProt P00742); assay: Chromogenic kinetic enzyme assay of Factor Xa; details: Table 4.1; read-out: Factor Xa Ki
Factor Xa, sequence (P00742 235-488 limits assumed): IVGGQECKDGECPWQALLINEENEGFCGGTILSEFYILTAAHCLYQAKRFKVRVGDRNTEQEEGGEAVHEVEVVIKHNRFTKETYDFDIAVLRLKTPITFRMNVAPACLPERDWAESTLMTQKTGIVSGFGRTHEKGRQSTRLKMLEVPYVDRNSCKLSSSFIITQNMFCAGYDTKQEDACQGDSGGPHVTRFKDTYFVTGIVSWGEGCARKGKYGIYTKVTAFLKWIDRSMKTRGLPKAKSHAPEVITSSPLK
Factor Xa, sequence (P00742 41-179 partner limits assumed): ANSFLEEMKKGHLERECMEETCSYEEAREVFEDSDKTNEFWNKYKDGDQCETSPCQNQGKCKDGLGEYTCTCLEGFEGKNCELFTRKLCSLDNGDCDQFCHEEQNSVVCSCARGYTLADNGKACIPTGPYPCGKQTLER
Procedure: Inhibitors (11-pt serial dilutions, 0-20 μM final concentration) were serially diluted in DMSO (2% DMSO final concentration) and then mixed with recombinant thrombin (0.15 nM final concentration) or Factor Xa (0.35 nM final concentration) in TNC buffer (25 mM Tris, 150 mM NaCl, 5 mM CaCl2, 0.01% TRITON X-100, pH 8) using clear 384 well plates. […] Changes in absorbance at 405 nm were measured over time in a Biotek Synergy 2 plate (Winnoski, Vt.). Using GraphPad Prism version 6.04 software program, (GraphPad Software, San Diego, Calif., www.graphpad.com), a four parameter curve fit was used to determine the inhibitor IC50s from a plot of the mean reaction velocity versus the inhibitor concentration. Ki values were calculated from the IC50 values using the Cheng and Prusoff equation (Ki=IC50/(1+[S]/Km).

Row | Structure (SMILES) | IC50 [1] | fold more potent for matriptase versus HGFA [2] | IC50 [2] | Ki [2] | Ki [3] | Ki [4]
1 | CC(=O)N[C@@H](CCCCN)C(=O)N[C@@H](CCC(N)=O)C(=O)N[C@@H](CC(C)C)C(=O)N[C@@H](CCCNC(=N)N)C(=O)c1nccs1 [Compound 5, Ac-KQLR(SEQ ID NO: 1)-kt] | 445 nM | 50 fold | 5 nM | 1.6 nM | > 20000 nM | 170 nM
2 | CC(=O)N[C@@H](CO)C(=O)N[C@@H](CCCCN)C(=O)N[C@@H](CC(C)C)C(=O)N[C@@H](CCCNC(=N)N)C(=O)c1nccs1 [Compound 6, Ac-SKLR(SEQ ID NO: 10)-kt] | 560 nM | only slightly more potent | 48 nM |  | > 20000 nM | 3060 nM
3 | N=C(N)c1ccc2cc(OC(=O)c3ccc(N=C(N)N)cc3)ccc2c1 [Nafamostat, reference compound] | 800 nM |  |  |  |  | 

The remaining lines, values ahead:

Row | IC50 [1] | fold more potent for matriptase versus HGFA [2] | IC50 [2] | Ki [2] | Ki [3] | Ki [4] | Structure (SMILES)
4 | 470 nM |  |  | 0.69 nM | > 20000 nM | 78.8 nM | CC(=O)N[C@@H](CCCCN)C(=O)N[C@@H](CCC(N)=O)C(=O)N[C@@H](Cc1ccccc1)C(=O)N[C@@H](CCCNC(=N)N)C(=O)c1nccs1 [Compound 5c, Ac-KQFR(SEQ ID NO: 4)-kt]
5 | 270 nM |  | 1 nM |  | > 20000 nM | 8.1 nM | CC(=O)N[C@@H](CCCNC(=N)N)C(=O)N[C@@H](CCC(N)=O)C(=O)N[C@@H](CC(C)C)C(=O)N[C@@H](CCCNC(=N)N)C(=O)c1nccs1 [Compound 5e, Ac-RQLR(SEQ ID NO: 6)-kt]
6 | 225 nM |  | 14 nM |  |  |  | CC(=O)N[C@@H](CCCCN)C(=O)N[C@@H](CCCNC(=N)N)C(=O)N[C@@H](CC(C)C)C(=O)N[C@@H](CCCNC(=N)N)C(=O)c1nccs1 [Compound 5g, Ac-KRLR(SEQ ID NO: 8)-kt]
7 | 275 nM |  | 31 nM |  |  |  | CC(=O)N[C@@H](Cc1c[nH]c2ccccc12)C(=O)N[C@@H](CCCNC(=N)N)C(=O)N[C@@H](CC(C)C)C(=O)N[C@@H](CCCNC(=N)N)C(=O)c1nccs1 [Compound 5h, Ac-WRLR(SEQ ID NO: 9)-kt]
8 | 520 nM |  | 34 nM |  | > 2000 nM | 530 nM | CC(=O)N[C@@H](CO)C(=O)N[C@@H](CCCCN)C(=O)N[C@@H](Cc1ccccc1)C(=O)N[C@@H](CCCNC(=N)N)C(=O)c1nccs1 [Compound 6c, Ac-SKFR(SEQ ID NO: 13)-kt]
9 | 303 nM |  | 24 nM |  |  |  | CC(=O)N[C@@H](CO)C(=O)N[C@@H](CCCNC(=N)N)C(=O)N[C@@H](CC(C)C)C(=O)N[C@@H](CCCNC(=N)N)C(=O)c1nccs1 [Compound 6e, Ac-SRLR(SEQ ID NO: 15)-kt]
10 | 435 nM |  | 175 nM |  | 3700 nM | 759 nM | CC(=O)N[C@@H](CO)C(=O)N[C@@H](Cc1c[nH]c2ccccc12)C(=O)N[C@@H](CC(C)C)C(=O)N[C@@H](CCCNC(=N)N)C(=O)c1nccs1 [Compound 6g, Ac-SWLR(SEQ ID NO: 17)-kt]
